Measured values taken from ChEMBL document CHEMBL3045835, “Comparative study of conventional and microwave-assisted synthesis of some Schiff bases and their potential as antimicrobial agents” (2012).
Converted amounts (≈) assume the structure as drawn.

Assays:
Type in all cases: functional
Pseudomonas aeruginosa [1] = assay: Antibacterial activity against Pseudomonas aeruginosa MTCC 424 at 500 ug/ml after 18 hr by cup-plate method; settings: MTCC 424, 18 h, read-out: DIZ
Pseudomonas aeruginosa [2] = assay: Antibacterial activity against Pseudomonas aeruginosa MTCC 424 at 200 ug/ml after 18 hr by cup-plate method; settings: MTCC 424, 18 h, read-out: DIZ
Pseudomonas aeruginosa [3] = assay: Antibacterial activity against Pseudomonas aeruginosa MTCC 424 at 100 ug/ml after 18 hr by cup-plate method; settings: MTCC 424, 18 h, read-out: DIZ
Micrococcus luteus [4] = assay: Antibacterial activity against Micrococcus luteus MTCC 1538 at 1500 ug/ml after 18 hr by cup-plate method; settings: MTCC 1538, 18 h, read-out: DIZ
Micrococcus luteus [5] = assay: Antibacterial activity against Micrococcus luteus MTCC 1538 at 1000 ug/ml after 18 hr by cup-plate method; settings: MTCC 1538, 18 h, read-out: DIZ
Micrococcus luteus [6] = assay: Antibacterial activity against Micrococcus luteus MTCC 1538 at 500 ug/ml after 18 hr by cup-plate method; settings: MTCC 1538, 18 h, read-out: DIZ
Micrococcus luteus [7] = assay: Antibacterial activity against Micrococcus luteus MTCC 1538 at 200 ug/ml after 18 hr by cup-plate method; settings: MTCC 1538, 18 h, read-out: DIZ
Micrococcus luteus [8] = assay: Antibacterial activity against Micrococcus luteus MTCC 1538 at 100 ug/ml after 18 hr by cup-plate method; settings: MTCC 1538, 18 h, read-out: DIZ
Bacillus pumilus [9] = assay: Antibacterial activity against Bacillus pumilus MTCC 1456 at 1500 ug/ml after 18 hr by cup-plate method; settings: MTCC 1456, 18 h, read-out: DIZ
Bacillus pumilus [10] = assay: Antibacterial activity against Bacillus pumilus MTCC 1456 at 1000 ug/ml after 18 hr by cup-plate method; settings: MTCC 1456, 18 h, read-out: DIZ
Bacillus pumilus [11] = assay: Antibacterial activity against Bacillus pumilus MTCC 1456 at 500 ug/ml after 18 hr by cup-plate method; settings: MTCC 1456, 18 h, read-out: DIZ
Bacillus pumilus [12] = assay: Antibacterial activity against Bacillus pumilus MTCC 1456 at 200 ug/ml after 18 hr by cup-plate method; settings: MTCC 1456, 18 h, read-out: DIZ
Bacillus pumilus [13] = assay: Antibacterial activity against Bacillus pumilus MTCC 1456 at 100 ug/ml after 18 hr by cup-plate method; settings: MTCC 1456, 18 h, read-out: DIZ
Bacillus subtilis [14] = assay: Antibacterial activity against Bacillus subtilis MTCC 441 at 1000 ug/ml after 18 hr by cup plate method; settings: MTCC 441, 18 h, read-out: DIZ
Bacillus subtilis [15] = assay: Antibacterial activity against Bacillus subtilis MTCC 441 at 1500 ug/ml after 18 hr by cup plate method; settings: MTCC 441, 18 h, read-out: DIZ
Bacillus subtilis [16] = assay: Antibacterial activity against Bacillus subtilis MTCC 441 at 500 ug/ml after 18 hr by cup plate method; settings: MTCC 441, 18 h, read-out: DIZ
Bacillus subtilis [17] = assay: Antibacterial activity against Bacillus subtilis MTCC 441 at 200 ug/ml after 18 hr by cup plate method; settings: MTCC 441, 18 h, read-out: DIZ
Bacillus subtilis [18] = assay: Antibacterial activity against Bacillus subtilis MTCC 441 at 100 ug/ml after 18 hr by cup plate method; settings: MTCC 441, 18 h, read-out: DIZ
Staphylococcus aureus [19] = assay: Antibacterial activity against Staphylococcus aureus MTCC 1430 at 1500 ug/ml after 18 hr by cup-plate method; settings: MTCC 1430, 18 h, read-out: DIZ
Staphylococcus aureus [20] = assay: Antibacterial activity against Staphylococcus aureus MTCC 1430 at 1000 ug/ml after 18 hr by cup-plate method; settings: MTCC 1430, 18 h, read-out: DIZ
Staphylococcus aureus [21] = assay: Antibacterial activity against Staphylococcus aureus MTCC 1430 at 500 ug/ml after 18 hr by cup-plate method; settings: MTCC 1430, 18 h, read-out: DIZ
Staphylococcus aureus [22] = assay: Antibacterial activity against Staphylococcus aureus MTCC 1430 at 200 ug/ml after 18 hr by cup-plate method; settings: MTCC 1430, 18 h, read-out: DIZ
Staphylococcus aureus [23] = assay: Antibacterial activity against Staphylococcus aureus MTCC 1430 at 100 ug/ml after 18 hr by cup-plate method; settings: MTCC 1430, 18 h, read-out: DIZ
Penicillium chrysogenum = assay: Antifungal activity against Penicillium chrysogenum MTCC 161 after 24 hr by broth dilution method; settings: MTCC 161, 24 h
Aspergillus niger = assay: Antifungal activity against Aspergillus niger MTCC 2546 after 24 hr by broth dilution method; settings: MTCC 2546, 24 h
Escherichia coli = assay: Antibacterial activity against Escherichia coli MTCC 1573 after 24 hr by broth dilution method; settings: MTCC 1573, 24 h
Pseudomonas fluorescens = assay: Antibacterial activity against Pseudomonas fluorescens MTCC 2421 after 24 hr by broth dilution method; settings: MTCC 2421, 24 h

Clc1ccc(/N=C/c2cccs2)cc1
zone of inhibition at 500 µg/mL (Pseudomonas aeruginosa [1]): 16 mm
zone of inhibition at 200 µg/mL (Pseudomonas aeruginosa [2]): 13 mm
zone of inhibition at 100 µg/mL (Pseudomonas aeruginosa [3]): 10 mm
zone of inhibition at 1500 µg/mL (Micrococcus luteus [4]): 24 mm
zone of inhibition at 1000 µg/mL (Micrococcus luteus [5]): 20 mm
zone of inhibition at 500 µg/mL (Micrococcus luteus [6]): 18 mm
zone of inhibition at 200 µg/mL (Micrococcus luteus [7]): 15 mm
zone of inhibition at 100 µg/mL (Micrococcus luteus [8]): 11 mm
zone of inhibition at 1500 µg/mL (Bacillus pumilus [9]): 20 mm
zone of inhibition at 1000 µg/mL (Bacillus pumilus [10]): 18 mm
zone of inhibition at 500 µg/mL (Bacillus pumilus [11]): 17 mm
zone of inhibition at 200 µg/mL (Bacillus pumilus [12]): 15 mm
zone of inhibition at 100 µg/mL (Bacillus pumilus [13]): 13 mm
zone of inhibition at 1000 µg/mL (Bacillus subtilis [14]): 18 mm
zone of inhibition at 1500 µg/mL (Bacillus subtilis [15]): 21 mm
zone of inhibition at 500 µg/mL (Bacillus subtilis [16]): 14 mm
zone of inhibition at 200 µg/mL (Bacillus subtilis [17]): 12 mm
zone of inhibition at 100 µg/mL (Bacillus subtilis [18]): 11 mm
zone of inhibition at 1500 µg/mL (Staphylococcus aureus [19]): 18 mm
zone of inhibition at 1000 µg/mL (Staphylococcus aureus [20]): 16 mm
zone of inhibition at 500 µg/mL (Staphylococcus aureus [21]): 15 mm
zone of inhibition at 200 µg/mL (Staphylococcus aureus [22]): 13 mm
zone of inhibition at 100 µg/mL (Staphylococcus aureus [23]): 12 mm
MIC (Penicillium chrysogenum): 300 µg/mL (≈ 1350 µM)
MIC (Aspergillus niger): 400 µg/mL (≈ 1800 µM)
MIC (Escherichia coli): 200 µg/mL (≈ 902 µM)
MIC (Pseudomonas fluorescens): 300 µg/mL (≈ 1350 µM)
